These are literature values, as cited in article PMC8198792, “Prediction of Anticancer Peptides with High Efficacy and Low Toxicity by Hybrid Model Based on 3D Structure of Peptides” (International Journal of Molecular Sciences, 2021).

Where two headings read alike, the source gives them in different places.

The test system of data set [1] is cancer cell lines. More on the design: method as in 6 sources, ref CancerPPD [45] and SATPdb ||| ref CancerPPD/SATPdb ||| ref CancerPPD, SATPdb, Swissprot (PDB) ||| ref CancerPPD/SATPdb/Swissprot(PDB) ||| ref CancerPPD / SATPdb ||| ... The note with it: cited from earlier work. The source says: Supplement ijms-22-05630-s001.zip/ACPs(seguence).xlsx, sheet "D1" | column: Activity || Supplement ijms-22-05630-s001.zip/ACPs(seguence).xlsx, sheet "D2" | column: Activity || Supplement ijms-22-05630-s001.zip/ACPs(seguence).xlsx, sheet "D3" | column: Activity || (+ 2 further places)

For data set [2], the system named is erythrocytes. The conditions noted are these: cited from earlier work. The source says:
Supplement ijms-22-05630-s001.zip/Hemloytic Peptides(seguence).xlsx, sheet "HD1" | column: Activity || Supplement ijms-22-05630-s001.zip/Hemloytic Peptides(seguence).xlsx, sheet "HD2" | column: Activity || Supplement ijms-22-05630-s001.zip/Hemloytic Peptides(seguence).xlsx, sheet "HD3" | column: Activity

Setting [3] is: ACPs dataset D3 (supplement sheet "D3"), 1 = ACP, 0 = non-ACP, ref CancerPPD [45] and SATPdb.
The mark [4] stands for this setting: ACPs dataset D4 (sheet "D4"), label 1 = ACP, 0 = non-ACP, ref CancerPPD / SATPdb.
The mark [5] stands for this setting: ACPs dataset D5, sheet "D5", label 1 = ACP, 0 = non-ACP, ref CancerPPD [45] and SATPdb.
Setting [6] is: ACPs dataset D3 (sheet "D3"), label 1 = ACP, 0 = non-ACP, ref CancerPPD/SATPdb.
Where [7] appears, read: Hemolytic peptides dataset HD2, label 1 = hemolytic, 0 = non-hemolytic, ref Hemolytik/SATPdb.
Where [8] appears, read: hemolytic peptides dataset HD3, 1 = hemolytic (positive set), 0 = non-hemolytic (negative set), labels taken from databases, ref Hemolytik/SATPdb.
Setting [9] is: ACPs dataset D1, label 1 = ACP, 0 = non-ACP (non-anticancer AMPs from SATPdb), ref CancerPPD/SATPdb.
Setting [10] is: ACPs dataset D4 (sheet "D4"), label 1 = ACP (CancerPPD ID), 0 = non-ACP (non-anticancer AMP, SATPdb ID), ref CancerPPD [45] and SATPdb.
Setting [11] is: natural hemolytic peptide dataset HD1, label collected from databases, ref Hemolytik [49], SATPdb [34].

Regarding FLPAIAGILSQLF [satpdb10431], the Activity in data set [1] (setting [3]) is 0; in data set [1] (setting [4]) it was 0; in data set [1] (setting [5]) it was 0; in data set [2], 1.

Take DVNDLKNLCAKTHNLLPMCAMF [satpdb13885]: the Activity in data set [1] (setting [6]), in data set [1] (setting [4]), in data set [1] (setting [5]) and in data set [2] was 0 throughout.

Turning to VKLKVypLKVKLyP [satpdb10873], the Activity in data set [1] (setting [3]) was 0; in data set [1] (setting [4]), 0; in data set [1] (setting [5]), 0; in data set [2] (setting [7]), 1; in data set [2] (setting [8]), 1.

With ILAWKWAWWAWRR [satpdb11388], the Activity in data set [1] (setting [3]) is reported as 0; in data set [1] (setting [4]), 0; in data set [1] (setting [5]) it was 0; in data set [2], 1.

Regarding GKKLLKKLKKLLKKW [satpdb10586], the Activity in data set [1] (setting [3]) is given as 0; in data set [1] (setting [4]) it was 0; in data set [1] (setting [5]), 0; in data set [2], 1.

For GLKEIFKAGLGSLVKGIAAHVAS [satpdb12238], the values for the Activity in data set [1] (setting [6]) and in data set [2] were 0 and 1, respectively.

VKLKVyPLKvKLyP [satpdb12258]: the Activity in data set [1] (setting [6]) is on record as 0; in data set [1] (setting [4]), 0; in data set [1] (setting [5]) it was 0; in data set [2] (setting [7]), 1; in data set [2] (setting [8]) it was 1.

For GLLSGILGAGKQKVCGLSGLC [satpdb12339], the Activity in data set [1] (setting [9]) is recorded as 0; in data set [1] (setting [10]) it was 0; in data set [2], 1. For the same substance, the “Activity (dataset HD1, hemolytic 1 / non-hemolytic 0)” value in data set [2] is 1.

On to GFLSILKKVLGKVMAHMK [satpdb11125], for which the Activity in data set [1] (setting [3]) is 0; in data set [1] (setting [4]) it was 0; in data set [1] (setting [5]), 0; in data set [2] (setting [7]) it was 1; in data set [2] (setting [8]) it was 1.

For the substance “GIGAVLK*VLTTGLpALISWIK*RK*RQQ [satpdb13686]”, the Activity in data set [1] (setting [6]) was 0; in data set [1] (setting [4]) it was 0; in data set [1] (setting [5]) it was 0; in data set [2] (setting [7]), 1; in data set [2] (setting [8]), 1.

LLIILRRRWRRQARARSR [satpdb11798]: the Activity in data set [1] (setting [3]) is on record as 0; in data set [1] (setting [4]), 0; in data set [1] (setting [5]), 0; in data set [2], 1.

As for KWKKPLLKKLLKKL [satpdb12744], the Activity in data set [1] (setting [6]) is on record as 0; in data set [1] (setting [4]), 0; in data set [1] (setting [5]), 0; in data set [2], 1.

On to FLPLIGRVLSGAL [satpdb13300], for which the Activity in data set [1] (setting [6]) is given as 0; in data set [1] (setting [4]) it was 0; in data set [1] (setting [5]) it was 0; in data set [2], 1.

For “KWKSFLKTFKSAKKKVLHKALKAISS [satpdb10714]”, the Activity in data set [1] (setting [3]) is recorded as 0; in data set [1] (setting [4]), 0; in data set [1] (setting [5]), 0; in data set [2] (setting [7]), 1; in data set [2] (setting [8]), 1.

As to “QLKVDLWGTRSGIQPEQHSSGKSDVRRWRSRY [satpdb10403]”, the Activity in data set [1] (setting [3]), in data set [1] (setting [4]), in data set [1] (setting [5]) and in data set [2] was 0 in each case.

In the case of KKVVFKVKFKK [satpdb13401], the Activity in data set [1] (setting [6]), in data set [1] (setting [4]), in data set [1] (setting [5]) and in data set [2] was 0 each time.

For the substance QPTRRPRPGTGPGRRPRPRPRP [satpdb11920], the Activity in data set [1] (setting [9]), in data set [1] (setting [10]) and in data set [2] was 0 in each case. For the same substance, the “Activity (dataset HD1, hemolytic 1 / non-hemolytic 0)” value in data set [2] was 0.

“KWKSFLKTFKSAKKTVLHTALKLISS [satpdb12569]”: the Activity is listed as 0 in data set [1] (setting [6]), 0 in data set [1] (setting [4]), 0 in data set [1] (setting [5]) and 1 in data set [2].

On to LALKSGGWLRLFGLKDKKH [satpdb12814], for which the Activity is given as 0 in data set [1] (setting [9]), 0 in data set [1] (setting [4]) and 1 in data set [2] (setting [8]). Besides, the “Activity (dataset HD1, hemolytic 1 / non-hemolytic 0)” value in data set [2] (setting [11]) is on record as 1.

For FLSTIWNGIKSLL [satpdb12436], the Activity in data set [1] (setting [6]) is given as 0; in data set [1] (setting [4]), 0; in data set [1] (setting [5]), 0; in data set [2] (setting [7]) it was 1; in data set [2] (setting [8]), 1.

Take KWAKKWKWFAKAAWKWYKK [satpdb12565]: the Activity in data set [1] (setting [6]) is recorded as 0; in data set [1] (setting [4]), 0; in data set [1] (setting [5]), 0; in data set [2] (setting [7]), 1; in data set [2] (setting [8]) it was 1.

For WLKKLLKKLLK [satpdb12765], the Activity in data set [1] (setting [6]) is recorded as 0; in data set [1] (setting [4]), 0; in data set [1] (setting [5]), 0; in data set [2] it was 1.

As for ALPLIGRVLSGIL [satpdb11361], the Activity in data set [1] (setting [3]) is on record as 0; in data set [1] (setting [4]), 0; in data set [1] (setting [5]) it was 0; in data set [2], 1.

With “GIGAvLKvLTTGLPALiSWIkRKRQQ [satpdb13084]”, the Activity in data set [1] (setting [6]), in data set [1] (setting [4]), in data set [1] (setting [5]), in data set [2] (setting [7]) and in data set [2] (setting [8]) was 0 each time.

Regarding DAACAAKCLWR [satpdb10773], the Activity in data set [1] (setting [3]), in data set [1] (setting [4]), in data set [1] (setting [5]), in data set [2] (setting [7]) and in data set [2] (setting [8]) was 0 in each case.

In the case of FLPILGKLLSGIL [satpdb10106], the Activity in data set [1] (setting [3]) was 0; in data set [1] (setting [4]) it was 0; in data set [1] (setting [5]), 0; in data set [2] (setting [7]) it was 1; in data set [2] (setting [8]), 1.

As to MQFITDLIKKAVDFFKGLFGNK [satpdb11952], the Activity is recorded as 0 in data set [1] (setting [9]), 0 in data set [1] (setting [10]) and 1 in data set [2] (setting [8]). The “Activity (dataset HD1, hemolytic 1 / non-hemolytic 0)” value in data set [2] (setting [11]) is 1.

For KKKAAAFAAWAAFAKKK [satpdb11969], the Activity in data set [1] (setting [6]), in data set [1] (setting [4]), in data set [1] (setting [5]) and in data set [2] was 0 each time.

Consider FPFSLIPHAIGGLISAIK [satpdb11349], for which the Activity in data set [1] (ACPs dataset D1, 1 = ACP (positive), 0 = non-ACP (negative), label taken from databases, ref CancerPPD [45] and SATPdb) is 0; in data set [1] (setting [10]) it was 0; in data set [2] (setting [8]) it was 1. Also, the “Activity (dataset HD1, hemolytic 1 / non-hemolytic 0)” value in data set [2] (setting [11]) is given as 1.

For KNLRRIIRKGIHIIKKYF [satpdb11799], the Activity in data set [1] (setting [9]) is given as 0; in data set [1] (setting [10]) it was 0; in data set [2], 1. In data set [2], the “Activity (dataset HD1, hemolytic 1 / non-hemolytic 0)” value is on record as 1.

Regarding VKLKVyPLKVKLyP [satpdb10236], the Activity in data set [1] (setting [3]) was 0; in data set [1] (setting [4]), 0; in data set [1] (setting [5]), 0; in data set [2], 1.
